# Reference: patent publication US20040024024A1, “Aromatic sulfone hydroxamates and their use as protease inhibitors” (priority 2001, published 2004)
# Legend:
# Assay type in all cases: biochemical
# Human recombinant MMP-14 [1] = target: T1, Human recombinant MMP-14 (Homo sapiens, UniProt P50281); assay: In vitro MMP inhibition, IC50 determination (fluorogenic substrate I); conditions: value outside parenthesis
# T1 construct: The catalytic domain enzyme was expressed in E. coli inclusion bodies, solubilized in urea; made in house
# In short: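 IC50 came from reduced fluorescence (ex 328 nm, em 415 nm) as inhibitor concentration rose, with 4 μM substrate I cleaved at Gly-Leu. Room-temperature incubation in pH 7.5 Tris buffer with 10 mM CaCl2; the E. coli-expressed, refolded MMP-14 catalytic domain was activated with trypsin or APMA.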
# Human recombinant MMP-13 = target: T2, Human recombinant MMP-13 (Homo sapiens, UniProt P45452); assay: In vitro MMP inhibition, Ki determination (fluorogenic substrate II)
# T2 construct: made in house; host or cells: baculovirus / insect cells
# Experimental: (§1) Several hydroxamates and salts thereof were analyzed in in vitro assays to determine their ability to inhibit the MMP cleavage of peptide substrates. Inhibition (Ki) and IC50 constants were calculated from the assayed hydroxamate-MMP interactions.
# (§2) Human recombinant MMP-1, MMP-2, MMP-9, MMP-13, and MMP-14 were used in this assay. All enzymes were prepared in Assignee's laboratories following usual laboratory procedures. Protocols for the preparation and use of these enzymes are available in the scientific literature. See, e.g., Enzyme Nomenclature (Academic Press, San Diego, Calif., 1992) (and the citations therein). See also, Frije et al., J. Biol. Chem., 26(24), 16766-73 (1994).
# The expressed proenzyme was first purified over a heparin agarose column, and then over a chelating zinc chloride column. The proenzyme was then activated by APMA for use in the assay. Further details on baculovirus expression systems may be found in, for example, Luckow et al., J. Virol., 67, 4566-79 (1993). See also, O'Reilly et al, Baculovirus Expression Vectors: A Laboratory Manual (W. H. Freeman and Co., New York, N.Y., 1992). See also, King et al., The Baculovirus Expression System: A Laboratory Guide (Chapman & Hall, London, England, 1992).
# (§3) All MMPs were activated using 4-aminophenylmercuric acetate (“APMA”, Sigma Chemical, St. Louis, Mo.) or trypsin. MMP-9 also was activated using human recombinant MMP-3 (purified in Assignee's laboratory following standard cloning and purification techniques).
# (§4) Two fluorogenic, methoxycoumarin-containing polypeptide substrates were used in the MMP inhibition assays:
# (§5) MCA-ArgProLeuGlyLeuDpaAlaArgGluArgNH2 (II)
# (§6) Here, “Dpa” is 3-(2,4-dinitrophenyl)-L-2,3-diaminopropionyl group, and “MCA” is 7-methoxycoumarin-4-yl acetyl. Substrate (I) was purchased from Baychem (Redwood City, Calif.), and substrate II was prepared Assignee's laboratory. Substrate I was used in the IC50 determination assays, while substrate II was used in the Ki determination assays. In the absence of MMP inhibitory activity, either substrate is cleaved at the Gly-Leu peptide bond. This cleavage separates the highly fluorogenic peptide from the 2,4-dinitrophenyl quencher, thus resulting in increase of fluorescent intensity.
# (§7) The stock solutions of the assayed hydroxamates (or salts thereof) were prepared in 1% dimethyl sulfoxide (DMSO). These stock solutions were diluted in Buffer A (100 mM Tris-HCl, 100 mM NaCl, 10 mM CaCl2, 0.05% polyoxyethylene 23 lauryl ether, pH 7.5) to obtain solutions with different hydroxamate concentrations, i.e., assay solutions with different concentrations of the assayed MMP inhibitory compound. The experiment controls contained the same amount of Buffer A/DMSO as the assayed sample, but contained no hydroxamate (or salt thereof).
# (§8) The assays from which the Ki determinations were made were performed as follows. The assayed hydroxamate samples were incubated in separate wells of untreated white polystyrene plates (Nunc Nalgene International, Rochester, N.Y.), and analyzed on a Tecan SpectraFlour Plus plate reader. The excitation wavelength was 330 nm, and the emission wavelength—420 nm. All samples (assayed hydroxamates and controls) were incubated in separate plate wells at room temperature for 1 hr in the presence of 4 μM of MMP substrate (II). In the absence of MMP inhibitory activity, substrate II was cleaved at the Gly-Leu bond resulting in an increase of relative fluorescence. Inhibition was observed as a reduced rate of this increase in relative fluorescence. The various hydroxamates were analyzed using a single low enzyme concentration with a single substrate concentration fixed at or below the Km. This protocol is a modification of method by Knight et al., FEBS Lett., 296(3), 263-266 (1992). Apparent inhibitory constants were determined by non-linear regression of reaction velocity as a function of inhibitor and enzyme concentration using Morrison's equation, as described by Kuzmic, Anal. Biochem. 286, 45-50 (2000). […]
# Human recombinant MMP-14 [2] = target: T1, Human recombinant MMP-14; assay: as above
# Experimental: as §1, §2
# The MMP-14 full length cDNA was provided by Dr. Gregory Goldberg of Washington University (St. Louis, Mo.). The catalytic domain enzyme was expressed in E. coli inclusion bodies, solubilized in urea, purified on a preparative […] reverse phase HPLC column, and then refolded in the presence of zinc acetate and purified for use.
# as §3, §4, §5, §6, §7
# as §8, with “(2000). Modifications were made in the non-linear regression method to allow a common control reaction rate and effective enzyme concentration to be shared between all dose-response relationships on a given assay plate.” for “(2000).”
Structure (SMILES),IC50 (Human recombinant MMP-14 [1]) [nM],Ki (Human recombinant MMP-13; value in parenthesis) [nM],Ki (Human recombinant MMP-14 [2]; value in parenthesis) [nM],Ki (Human recombinant MMP-13; value in parentheses) [nM],Ki (Human recombinant MMP-14 [2]; value in parentheses) [nM]
O=C(NO)C1(S(=O)(=O)c2ccc(OCCCc3cccc(-c4ccc(F)cc4)c3)cc2)CCN(C2CC2)CC1 [Example 139],> 10000,2.89,> 10000,,
COCCN1CCC(C(=O)NO)(S(=O)(=O)c2ccc(OCCCc3cccc(-c4ccc(F)cc4)c3)cc2)CC1 [Example 140],> 10000,0.895,> 10000,,
O=C(NO)C1(S(=O)(=O)c2ccc(OCCCc3cccc(-c4cccnc4)c3)cc2)CCOCC1 [Example 150],6630,0.587,5510,,
COCCN1CCC(C(=O)NO)(S(=O)(=O)c2ccc(OCCCc3nc(-c4ccccc4OC(F)(F)F)no3)cc2)CC1 [Example 152],> 10000,2.66,> 10000,,
O=C(NO)C1(S(=O)(=O)c2ccc(OCCCc3cccc(Br)c3)cc2)CCOCC1 [Example 154],9120,0.95,3910,,
CCc1ccccc1-c1noc(CCCOc2ccc(S(=O)(=O)C3(C(=O)NO)CCN(CCOC)CC3)cc2)n1 [Example 155],> 10000,1.58,9370,,
O=C(NO)C1(S(=O)(=O)c2ccc(OCCCc3cccc(-c4ccc5ccccc5c4)c3)cc2)CCOCC1 [Example 629],,,,89.1,> 10000
O=C(NO)C1(S(=O)(=O)c2ccc(OCCCc3cccc(-c4csc5ccccc45)c3)cc2)CCOCC1 [Example 631],,,,57.6,> 10000
O=C(NO)C1(S(=O)(=O)c2ccc(OCCCc3cccc(-c4cc5ccccc5s4)c3)cc2)CCOCC1 [Example 633],,,,92.4,> 10000
O=C(NO)C1(S(=O)(=O)c2ccc(OCCCc3cccc(-c4coc5ccccc45)c3)cc2)CCOCC1 [Example 634],,,,19.4,> 10000
C=Cc1ccc(-c2cccc(CCCOc3ccc(S(=O)(=O)C4(C(=O)NO)CCOCC4)cc3)c2)cc1 [Example 635],,,,26.2,> 10000
O=C(NO)C1(S(=O)(=O)c2ccc(OCCCc3cccc(-c4ccccc4O)c3)cc2)CCOCC1 [Example 636],,,,3.21,> 10000
O=C(NO)C1(S(=O)(=O)c2ccc(OCCCc3cccc(-c4cccc5ccccc45)c3)cc2)CCOCC1 [Example 638],,,,68.1,> 10000
Cc1ccc(-c2cccc(CCCOc3ccc(S(=O)(=O)C4(C(=O)NO)CCOCC4)cc3)c2)s1 [Example 639],,,,12.5,> 10000
